pEC50: −log10 of the molar value.
Target: T1, TrpI (PpTrpI/PPP_RS00425 inducible system) (Pseudomonas putida, UniProt Q88RP5)
T1 sequence (Q88RP5 1-298): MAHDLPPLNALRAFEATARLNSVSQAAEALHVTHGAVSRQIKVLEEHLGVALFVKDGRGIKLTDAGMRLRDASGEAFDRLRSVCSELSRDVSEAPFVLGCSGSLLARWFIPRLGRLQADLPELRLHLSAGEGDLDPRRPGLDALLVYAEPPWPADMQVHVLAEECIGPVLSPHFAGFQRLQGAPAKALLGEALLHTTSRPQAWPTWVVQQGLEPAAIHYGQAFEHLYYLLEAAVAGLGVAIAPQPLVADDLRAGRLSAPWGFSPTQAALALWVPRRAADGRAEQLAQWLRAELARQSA
Assay: RFP reporter induction in whole cells, Hill fit
Format: cell-based
Settings: read-out: Km
From the text: RFP reporter induction in whole cells, Hill fit on TrpI (PpTrpI/PPP_RS00425 inducible system)

SMILES: c1ccc2[nH]ccc2c1 [compound 1, indole]
- pEC50: 2.87

— article PMC9105386, “Development and Characterization of Indole-Responsive Whole-Cell Biosensor Based on the Inducible Gene Expression System from Pseudomonas putida KT2440” (International Journal of Molecular Sciences, 2022)
